Measurements as given in US8802597B2, “Herbicidal pyrimidines” (E I du Pont de Nemours and Company, priority 2003, dated 2014).
Like-named read-outs stand apart in the source and are kept apart here.

Key:
Test in all cases: Test C pre/postemergence
Assay type in all cases: in vivo
[1] = tested on: crabgrass (Digitaria sanguinalis); conditions: Digitaria sanguinalis; for pest or weed control at 62 g/ha: 62 g ai/ha; for pest or weed control at 125 g/ha: 125 g ai/ha; for pest or weed control at 250 g/ha: 250 g ai/ha; for pest or weed control at 500 g/ha: 500 g ai/ha
In short: (§1)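 Seeds sown and sprayed preemergence with test compound in non-phytotoxic solvent containing surfactant; postemergence sprays, same formulation, went onto plants 2 to 18 cm tall (1- to 4-leaf stage). Plants held in greenhouse 12 to 14 days, then visually rated against untreated controls on a 0–100 scale (0 no effect, 100 complete control).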

[2] = tested on: corn (Zea mays); conditions: Zea mays; for Corn plant response rating (crop injury, 0 = no effect, 100 = complete kill) at 62 g/ha: 62 g ai/ha; for Corn plant response rating (crop injury, 0 = no effect, 100 = complete kill) at 125 g/ha: 125 g ai/ha; for Corn plant response rating (crop injury, 0 = no effect, 100 = complete kill) at 250 g/ha: 250 g ai/ha; for Corn plant response rating (crop injury, 0 = no effect, 100 = complete kill) at 500 g/ha: 500 g ai/ha
In short: as §1

[3] = tested on: goosegrass (Eleusine indica); conditions: Eleusine indica; for pest or weed control at 62 g/ha: 62 g ai/ha; for pest or weed control at 125 g/ha: 125 g ai/ha; for pest or weed control at 250 g/ha: 250 g ai/ha; for pest or weed control at 500 g/ha: 500 g ai/ha
In short: as §1

[4] = tested on: bermudagrass (Cynodon dactylon); conditions: Cynodon dactylon; for pest or weed control at 62 g/ha: 62 g ai/ha; for pest or weed control at 125 g/ha: 125 g ai/ha; for pest or weed control at 250 g/ha: 250 g ai/ha; for pest or weed control at 500 g/ha: 500 g ai/ha
In short: as §1

[5] = tested on: lambsquarters (Chenopodium album); conditions: Chenopodium album; for pest or weed control at 62 g/ha: 62 g ai/ha; for pest or weed control at 125 g/ha: 125 g ai/ha; for pest or weed control at 250 g/ha: 250 g ai/ha; for pest or weed control at 500 g/ha: 500 g ai/ha
In short: as §1

[6] = tested on: cocklebur (Xanthium strumarium); conditions: Xanthium strumarium; for pest or weed control at 62 g/ha: 62 g ai/ha; for pest or weed control at 125 g/ha: 125 g ai/ha; for pest or weed control at 250 g/ha: 250 g ai/ha; for pest or weed control at 500 g/ha: 500 g ai/ha
In short: as §1

[7] = tested on: velvetleaf (Abutilon theophrasti); conditions: Abutilon theophrasti; for pest or weed control at 62 g/ha: 62 g ai/ha; for pest or weed control at 125 g/ha: 125 g ai/ha; for pest or weed control at 250 g/ha: 250 g ai/ha; for pest or weed control at 500 g/ha: 500 g ai/ha
In short: as §1

[8] = tested on: eastern black nightshade (Solanum ptycanthum); conditions: Solanum, pre-emergence, Preemergence, read-out: Plant response rating, Nightshade
In short: as §1

[9] = post-emergence, Postemergence, scale 0 to 100 (0 no effect, 100 complete control), read-out: Crabgrass plant response rating
[10] = post-emergence, Postemergence, scale 0 to 100, read-out: Plant response rating, Crabgrass
[11] = pre-emergence, Preemergence, scale 0 to 100, read-out: Plant response rating, Crabgrass
[12] = post-emergence, Postemergence, scale 0 to 100 (0 no effect, 100 complete control), read-out: Corn plant response rating
[13] = post-emergence, Postemergence, scale 0 to 100
[14] = pre-emergence, Preemergence, scale 0 to 100
[15] = post-emergence, Postemergence, scale 0 to 100 (0 no effect, 100 complete control), read-out: Goosegrass plant response rating
[16] = post-emergence, Postemergence, scale 0 to 100, read-out: Plant response rating, Goosegrass
[17] = pre-emergence, Preemergence, scale 0 to 100, read-out: Plant response rating, Goosegrass
[18] = post-emergence, Postemergence, scale 0 to 100 (0 no effect, 100 complete control), read-out: Bermudagrass plant response rating
[19] = post-emergence, Postemergence, scale 0 to 100, read-out: Plant response rating, Bermudagrass
[20] = pre-emergence, Preemergence, scale 0 to 100, read-out: Plant response rating, Bermudagrass
[21] = post-emergence, Postemergence, scale 0 to 100 (0 no effect, 100 complete control), read-out: Lambsquarters plant response rating
[22] = post-emergence, Postemergence, scale 0 to 100, read-out: Plant response rating, Lambsquarters
[23] = pre-emergence, Preemergence, scale 0 to 100, read-out: Plant response rating, Lambsquarters
[24] = post-emergence, Postemergence, scale 0 to 100 (0 no effect, 100 complete control), read-out: Cocklebur plant response rating
[25] = post-emergence, Postemergence, scale 0 to 100, read-out: Plant response rating, Cocklebur
[26] = pre-emergence, Preemergence, scale 0 to 100, read-out: Plant response rating, Cocklebur
[27] = post-emergence, Postemergence, scale 0 to 100 (0 no effect, 100 complete control), read-out: Velvetleaf plant response rating
[28] = post-emergence, Postemergence, scale 0 to 100, read-out: Plant response rating, Velvetleaf
[29] = pre-emergence, Preemergence, scale 0 to 100, read-out: Plant response rating, Velvetleaf

## Nc1nc(C2CC2)nc(C(=O)OCc2ccccc2)c1Br [Compound 22, phenylmethyl 6-amino-5-bromo-2-cyclopropyl-4-pyrimidinecarboxylate]
[1]; [9]
  pest or weed control at 62 g/ha: 50%
  pest or weed control at 125 g/ha: 55%
[1]; [10]
  pest or weed control at 250 g/ha: 85%
  pest or weed control at 500 g/ha: 85%
[1]; pre-emergence, Preemergence, scale 0 to 100, 0 no effect, 100 complete control, read-out: Plant response rating, Crabgrass
  pest or weed control at 62 g/ha: 90%
[1]; [11]
  pest or weed control at 125 g/ha: 95%
  pest or weed control at 250 g/ha: 95%
  pest or weed control at 500 g/ha: 100%
[2]; [12]
  Corn plant response rating (crop injury, 0 = no effect, 100 = complete kill) at 62 g/ha: 30%
  Corn plant response rating (crop injury, 0 = no effect, 100 = complete kill) at 125 g/ha: 40%
[2]; [13]
  Corn plant response rating (crop injury, 0 = no effect, 100 = complete kill) at 250 g/ha: 60%
  Corn plant response rating (crop injury, 0 = no effect, 100 = complete kill) at 500 g/ha: 65%
[2]; pre-emergence, Preemergence, scale 0 to 100, 0 no effect, 100 complete control, read-out: Plant response rating, Corn
  Corn plant response rating (crop injury, 0 = no effect, 100 = complete kill) at 62 g/ha: 40%
[2]; pre-emergence, Preemergence, scale 0 to 100, read-out: Plant response rating, Corn
  Corn plant response rating (crop injury, 0 = no effect, 100 = complete kill) at 125 g/ha: 50%
[2]; [14]
  Corn plant response rating (crop injury, 0 = no effect, 100 = complete kill) at 250 g/ha: 65%
  Corn plant response rating (crop injury, 0 = no effect, 100 = complete kill) at 500 g/ha: 65%
[3]; [15]
  pest or weed control at 62 g/ha: 10%
  pest or weed control at 125 g/ha: 10%
[3]; [16]
  pest or weed control at 250 g/ha: 20%
  pest or weed control at 500 g/ha: 25%
[3]; pre-emergence, Preemergence, scale 0 to 100, 0 no effect, 100 complete control, read-out: Plant response rating, Goosegrass
  pest or weed control at 62 g/ha: 0%
[3]; [17]
  pest or weed control at 125 g/ha: 0%
  pest or weed control at 250 g/ha: 80%
  pest or weed control at 500 g/ha: 100%
[4]; [18]
  pest or weed control at 62 g/ha: 50%
  pest or weed control at 125 g/ha: 60%
[4]; [19]
  pest or weed control at 250 g/ha: 60%
  pest or weed control at 500 g/ha: 60%
[4]; pre-emergence, Preemergence, scale 0 to 100, 0 no effect, 100 complete control, read-out: Plant response rating, Bermudagrass
  pest or weed control at 62 g/ha: 0%
[4]; [20]
  pest or weed control at 125 g/ha: 50%
  pest or weed control at 250 g/ha: 50%
  pest or weed control at 500 g/ha: 90%
[5]; [21]
  pest or weed control at 62 g/ha: 90%
  pest or weed control at 125 g/ha: 95%
[5]; [22]
  pest or weed control at 250 g/ha: 95%
  pest or weed control at 500 g/ha: 95%
[5]; pre-emergence, Preemergence, scale 0 to 100, 0 no effect, 100 complete control, read-out: Plant response rating, Lambsquarters
  pest or weed control at 62 g/ha: 100%
[5]; [23]
  pest or weed control at 125 g/ha: 100%
  pest or weed control at 250 g/ha: 100%
  pest or weed control at 500 g/ha: 100%
[6]; [24]
  pest or weed control at 62 g/ha: 90%
  pest or weed control at 125 g/ha: 90%
[6]; [25]
  pest or weed control at 250 g/ha: 100%
  pest or weed control at 500 g/ha: 100%
[6]; pre-emergence, Preemergence, scale 0 to 100, 0 no effect, 100 complete control, read-out: Plant response rating, Cocklebur
  pest or weed control at 62 g/ha: 90%
[6]; [26]
  pest or weed control at 125 g/ha: 95%
  pest or weed control at 250 g/ha: 100%
  pest or weed control at 500 g/ha: 100%
[7]; [27]
  pest or weed control at 62 g/ha: 55%
  pest or weed control at 125 g/ha: 60%
[7]; [28]
  pest or weed control at 250 g/ha: 90%
  pest or weed control at 500 g/ha: 95%
[7]; pre-emergence, Preemergence, scale 0 to 100, 0 no effect, 100 complete control, read-out: Plant response rating, Velvetleaf
  pest or weed control at 62 g/ha: 90%
[7]; [29]
  pest or weed control at 125 g/ha: 95%
  pest or weed control at 250 g/ha: 100%
  pest or weed control at 500 g/ha: 100%
[8]; 62 g ai/ha, scale 0 to 100, 0 no effect, 100 complete control
  pest or weed control at 62 g/ha: 100%
[8]; 125 g ai/ha, scale 0 to 100
  pest or weed control at 125 g/ha: 100%
[8]; 250 g ai/ha, scale 0 to 100
  pest or weed control at 250 g/ha: 100%
[8]; 500 g ai/ha, scale 0 to 100
  pest or weed control at 500 g/ha: 100%
